The values below come from US20210393667A1, “TARGET FOR ANTI-CANCER THERAPY” (Phoremost Limited, priority 2018, published 2021).

Where two headings read alike, the source gives them in different places.

Data set [1] has as its system CA18-NanoLuc frameshift reporter in HEK293FT cells. Nature of the data set: Frameshift reporter (FSR) CA(18)-NanoLuc assay, small molecule treatment. It counts as cell-based. The note with it: for increase in FSR signal: 72 hours, vs untreated FSR luminescence; for FSR activity (in words): dose range. An excerpt: In order to read out mismatch repair (MMR) and hypermutability in mammalian cells, a Frameshift reporter (FSR) assay was used. The assay specifically focuses on frameshifts because, of all mismatch mutations, these are the ones that most abundantly generate neoantigens (see, for example, Turajlic et al. Lancet Oncol. 2017 (18; 1009-21). The assay based on the activity of the NanoLuciferase (NanoLuc®, Promega) reporter enzyme was developed (the “CA(n)-NanoLuc assay”). Copies of the CA dinucleotide repeat (referred to as “CA(n)”) were cloned upstream of the NanoLuc coding sequence. Typically 18 copies of the CA dinucleotide repeat (CA(18)) were used. Alternatively, the assay used 20 copies (CA(20)). This CA(n) tract renders the NanoLuc coding sequence out of frame, and therefore there is no reporter enzyme expression and no activity. The CA(n) tract is, however, a sequence which is subject to frequent DNA replication errors, and is therefore reliant on the MMR pathway to repair any post-replicative DNA mismatches. In a MMR-competent cell, any errors are efficiently repaired, the NanoLuc coding sequence remains out of frame and thus reporter activity is low. If, however, MMR is inhibited either by a small molecule or by genetic loss of any of the MMR machinery, post-replicative errors may remain unrepaired, frameshift mutations may occur, and therefore some cells in a population will now express a functional NanoLuc protein.
MMR inhibition can therefore be reported as an increase in NanoLuc® activity when a plasmid containing a CA repeat, such as the CA(18) NanoLuc construct, is transfected into cells. Since NanoLuc® is a highly processive enzyme with a large and linear dynamic range, it was predicted that only a small number of MMR errors would be required to generate a positive signal, making for a sensitive assay with a large signal to noise ratio.
In addition, it has been shown that inhibition of RNR causes altered pools of dNTP resulting in increased mutation rates. Relatively modest dNTP pool deviations induce exceptionally strong mutator phenotypes which cause saturation of the DNA mismatch repair system and lead to detection in the FSR assay system.
HEK293FT cells seeded at 600,000 cells per well in a 6 well plate and incubated overnight. Media was replaced and incubated a further 2 hours before transient transfection of pcDNA3.1 Hygro CA18Nluc (0.5 μg). After 4 hours media was replaced and incubated overnight. Media was aspirated, cells washed with PBS and trypsinised. Cells were pelleted by centrifugation (1000×g, 5 mins), washed in PBS, centrifuged again and resuspended in fresh media to […].
(§1) A 96 well plate was seeded with 100 μl of transfected cells and incubated overnight. A 2× solution of clofarabine was made to 100 μM in DMEM and 9× two-fold dilutions were made in growth media. A parallel dilution series was made with equal concentrations of DMSO as a control. 100 μL of clofarabine or DMSO solution was added to wells of 96 well plates (6 replicates per concentration). PBS was added to outer wells of 96 well plates and incubated for 48 hours. To 3 wells per concentration a 1:1 ratio of CellTiter Glo (Promega) was added. To remaining wells, an equal volume of NanoGlo (Promega) reagent was added. 100 μL was aliquoted from each well to a 96 well, white walled, white bottomed plate and luminescence read. Percentage viability was calculated for all conditions in comparison to an untreated control and nanoluciferase reading were normalised to viability.
For triapine treatment, cells were initially seeded into 6 well plates and transfected with the pcDNA3.1 Hygro CA18Nluc construct, as in the detailed method for clofarabine treatment. After transfection, cells were trypsinised and seeded into white-walled 384 well plates at a density of 2000 cells per well in a final volume of 30 uL. After 24 hours, cells were treated with compounds or a DMSO solvent control in a final volume of 3.3 uL. […]

In data set [2] the test system is HEK293FT cells. Briefly: CellTitre Glo viability assay. It counts as cell-based. Conditions: HEK293FT cells, 3.33 uM, 72 hours. As to the method:
as §1
(§2) For triapine treatment, cells were initially seeded into 6 well plates and transfected with the pcDNA3.1 Hygro CA18Nluc construct, as in the detailed method for clofarabine treatment. After transfection, cells were trypsinised and seeded into white-walled 384 well plates at a density of 2000 cells per well in a final volume of 30 uL. After 24 hours, cells were treated with compounds or a DMSO solvent control in a final volume of 3.3 uL. Compound stock was diluted to achieve a final concentration of 10 uM, and compounds were serially diluted in DMSO by three-fold to generate the dose-response curve. Compound was subsequently diluted in media, and then added to cells in 3.3 uL, ensuring a final concentration of DMSO no greater than 0.5%. PBS was added to outer wells of the 384 well plates and incubated for 72 hours. To 3 wells per concentration, 5 uL of CellTiter Glo (Promega) was added. To remaining wells, 30 uL of NanoGlo (Promega) reagent was added and incubated at room temperature for 30 minutes. Luminescence was read. Percentage viability was calculated for all conditions in comparison to an untreated control and nanoluciferase reading were normalised to viability.

Data set [3] has as its system CT26 cells. Nature of the data set: Whole exome sequencing of CT26 cells after 100 days of clofarabine. It counts as cell-based, mouse. The note with it: 100 nM, relative to matched vehicle only control. The method, then: CT26 cells, cultured in RPM11640 were dosed with 100 nM clofarabine or with DMSO only. Cells were passaged and re-dosed every 72 hours. Cells were harvested at 100 days, and single-cell colonies (SSCs) derived for each sample. After expansion over 8-10 days, genomic DNA was extracted from SSC pellets and whole exome sequencing (WES) performed following methods such as those described, for example, in WO2017/182783, see page 33, line 21 onwards and page 34, lines 1 to 5.
Somatic single nucleotide variants (SNVs), multiple-nucleotide polymorphisms (MNPs), and insertion-deletion (InDel) mutations were identified using the GATK4 Toolkit and GATK's Mutect2 (version 4.1.4.0) to analyse the WES data. Prior to mapping the read sequences to the reference genome (mm10), read data quality and adapter trimming and QC was performed using TrimGalore and a Q-score cut-off of 30. Reads were aligned to mm10 using BWA mem (version 0.7.17-r1188). Duplicate reads were marked using MarkDuplicates (Picard, GATK4 copy). Variant discovery using Mutect2 was performed using a custom generated interval list and Panel of Normals (PON) resource. The interval list was derived for a BED file of canonical transcript exon positional information for mm10, which was generated using the UCSC TableBrowser. The PON was derived for matched CT26 WES data using Mutect2, GenomicsDBImport, and CreateSomaticPanelOfNormals. Variant filtering was performed using FilterMutectCalls (GATK4). Variants detailed in the VCF files generated using FilterMutectCalls were further filtered using a shell script in order to keep only variants meeting the quality control thresholds applied by FilterMutectCalls and exclude variants identified for reads mapping to unlocalized and unplaced contigs. The functional effects of the identified variants (on genes, transcripts, protein sequences, and regulatory regions) were predicted using the Ensembl Variant Effect Predictor (VEP).

The subject of data set [4] is HEK293FT cells. Nature of the data set: GI50, standard dosimetric assay testing for cell growth. Format: cell-based.
The conditions of data set [5]: recommended dose for adult acute leukemia, 40 mg/m2/day×5 days; cited from earlier work.
Data set [6] relates to CT26 cells. Briefly: T cell killing assay with clofarabine-treated CT26 cells. It counts as cell-based, mouse. The note with it: CT26 cells treated with 100 nM for 100 days; stimulated and unstimulated, C57BL/6- and Balb/c-derived CD8 T cells, 10:1, 72 h.
Method: T-cell extraction: Spleen from C56BL/6 and Balb/c mice was homogenised aseptically using a cell strainer and syringe plunger. RBC was lysed using lysis buffer and remaining cells washed and counted. Dynabeads untouched mouse CD8 cell kit (Thermofisher: 11417D) used to isolate CD8 cells using negative selection. Half these cells were cultured as unstimulated for assay controls but the majority was cultured with Dynabeads Mouse T-activator CD3/CD28 beads for 24 h prior to assay. T-cell assay: CT26 tumour cell lines (parental as control) was plated at 3,000 cells per well into a 96 well plate; effector cells at a ratio of 10:1 was added along with appropriate stains and imaged on the EVOS microscope over a period of 72 h.
Data set [7] in a line: CellTitre Glo viability assay. Format: cell-based. The note with it: human. As to the method: as §1, §2

As for `Nc1nc(Cl)nc2c1ncn2[C@H]1C[C@H](O)[C@@H](CO)O1` [cladribine, Cladribine], the “increase in FSR signal” value in data set [1] (3.33 uM) is 226%. Also, the reduction in viability entry in the data set on HEK293FT cells [2] is “no reduction in viability”.

Consider `Nc1nc(Cl)nc2c1ncn2[C@@H]1O[C@H](CO)[C@@H](O)[C@@H]1F` [clofarabine, (2R,3R,4S,5R)-5-(6-amino-2-chloropurin-9-yl)-4-fluoro-2-(hydroxymethyl)oxolan-3-ol], for which, in the data set with CT26 cells [3], the “overall burden of mutations (largely SNV)” value is “does not increase substantially”, the “proportion of frame-shift causing InDel mutations” value is recorded as “elevated” and the “total count of frame-shift causing InDel mutations” value is recorded as “elevated”. In the data set with HEK293FT cells [4], this molecule showed a 50% growth inhibitory concentration (GI50) of 430 nM. For the same molecule, the plasma levels result in data set [5] is recorded as “around 1 μM”. In addition, in the data set on CT26 cells [6], the T cell killing entry is listed as “significantly increase T cell killing”. Moreover, in data set [1] (50 nM), the “increase in FSR signal” value was 40%. The “FSR activity (in words)” value in data set [1] is given as “dose-dependent increase in FSR activity”. Besides, the viability at 72 h, 0.05 µM in data set [7] amounted to 92%.

With `Nc1ccn([C@@H]2O[C@H](CO)[C@@H](O)C2(F)F)c(=O)n1` [gemcitabine], the concentration for 50% growth inhibition (GI50) with HEK293FT cells [4] came out at 440 nM. Also, the “increase in FSR signal” value in data set [1] (370 nM) is reported as 300%. For the same molecule, the “FSR activity (in words)” value in data set [1] is recorded as “causes an increase in FSR activity”. For the same molecule, the cytotoxicity at 72 h, 370 nM in data set [7] stood at 50%.

`NC(=S)N/N=C/c1ncccc1N` [triapine]: halving of growth in the data set with HEK293FT cells [4] (GI50) required 600 nM. Moreover, the “increase in FSR signal” value in data set [1] (370 nM) is 400%. Besides, the cytotoxicity at 72 h, 370 nM in data set [7] (HEK293FT cells, 370 nM, 72 hours, vs DMSO control, read-out: reduction in viability) was 23%.

Broadly, the GI50 is the concentration that inhibits growth by half. A high value points to lower sensitivity of the cells. Broadly, the viability is a per cent measure of how many cells are alive, often set against a control. Higher therefore signals less harm to the cells.
